Test [1] has as its target T1, 20S proteasome chymotrypsin-like activity (Bos taurus, UniProt Q32KL2).
T1 construct: from tissue; host or cells: bovine brain
In words: Kinetics of inhibition of 20S proteasome chymotrypsin-like activity (Suc-LLVY-AMC). The test is classed as biochemical, bovine. How it is done: (§1) Experiments involving the proteasome were performed as follows: 20S proteasome (˜5 ng/μl) in 10 mM Tris-HCl, pH 7.5, 1 mM EDTA was incubated at 25° C. in the presence of lactacystin or lactacystin analogs in DMSO or MeOH [not exceeding 5% (v/v)]. Aliquots for fluorescence assay were removed at various times following addition of compound and diluted in 10 mM Tris-HCl, pH 7.5, 1 mM EDTA containing fluorogenic peptide substrates (100 μM final). Suc-LLVY-AMC, Cbz-GGR-βNA and […] (AMC=7-amido-4-methylcoumarin; βNA=β-naphthylamide) were used to assay for the chymotrypsin-like, trypsin-like and peptidylglutamyl-peptide hydrolyzing activities, respectively.
(§2) Fluorescent emission at 460 nm with excitation at 380 nm was measured for AMC-containing substrates, and emission at 410 nm with excitation at 335 nm was measured for βNA-containing substrates. The fluorescence assays were conducted at 25° C., each experiment was performed at least three times, and values represent mean±standard deviation.
(§3) The reversibility of the inhibitory effects was assessed by measuring residual peptidase activity after removal of excess inhibitor by extensive serial dilution/ultrafiltration.

Another test addresses T2, Calpain II (Homo sapiens, UniProt P17655).
T2 sequence (P17655 1-700): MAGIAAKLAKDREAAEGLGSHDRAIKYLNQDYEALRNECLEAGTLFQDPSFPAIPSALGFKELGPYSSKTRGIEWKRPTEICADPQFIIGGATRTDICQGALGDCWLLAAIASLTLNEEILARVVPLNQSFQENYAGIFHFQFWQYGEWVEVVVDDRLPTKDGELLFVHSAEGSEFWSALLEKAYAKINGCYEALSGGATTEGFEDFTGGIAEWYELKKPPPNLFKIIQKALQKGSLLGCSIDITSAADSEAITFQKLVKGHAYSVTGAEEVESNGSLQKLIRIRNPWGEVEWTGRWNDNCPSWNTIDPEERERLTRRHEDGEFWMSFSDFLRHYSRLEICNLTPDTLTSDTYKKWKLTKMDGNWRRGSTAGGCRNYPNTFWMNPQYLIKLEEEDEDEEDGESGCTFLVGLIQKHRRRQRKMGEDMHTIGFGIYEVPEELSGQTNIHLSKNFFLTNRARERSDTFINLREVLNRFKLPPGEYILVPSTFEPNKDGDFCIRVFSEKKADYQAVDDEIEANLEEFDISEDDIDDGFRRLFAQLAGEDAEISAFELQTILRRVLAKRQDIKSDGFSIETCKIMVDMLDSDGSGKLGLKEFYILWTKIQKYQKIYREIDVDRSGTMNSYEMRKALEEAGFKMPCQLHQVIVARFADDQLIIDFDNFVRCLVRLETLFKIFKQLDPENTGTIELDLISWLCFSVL
T2 sequence (P04632 1-268 partner): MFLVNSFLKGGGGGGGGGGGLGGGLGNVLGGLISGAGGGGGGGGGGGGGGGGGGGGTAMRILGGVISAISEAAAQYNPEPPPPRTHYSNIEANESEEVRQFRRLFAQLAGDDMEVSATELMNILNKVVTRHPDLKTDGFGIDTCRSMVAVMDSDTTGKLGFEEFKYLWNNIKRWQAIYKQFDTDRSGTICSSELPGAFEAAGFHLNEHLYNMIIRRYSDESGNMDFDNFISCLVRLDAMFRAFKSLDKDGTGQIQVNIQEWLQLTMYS
In words: Selectivity of protease inhibition: calpain II. The note with it: concentration not given. The test is classed as biochemical.

For the next test, the system named is IκB-α. Put plainly: TNF-α dependent degradation of IκB-α in Hela cells (immunoblot). Format: cell-based, human. The note with it: 5 μM, 1 h pretreatment, 1,000 U/ml TNF-α. How it is done:
Hela cells were plated onto 6-well plates in DME plus 10% fetal calf serum (3 mls/well). Cells were then pretreated with 0.125% DMSO 40 μM […] (carbobenzoxyl-leucinyl-leucinyl-leucinal-H)(40 μM, lanes 103), or 5 μM β-lactone for one hour, followed by treatment with 1,000 U/ml TNF-α or phosphate buffered saline (PBS). Cells were harvested after 0 min, 20 min, or 40 min of further incubation at 37° C. Cells were then lysed in buffer containing NP-40 and protease inhibitors, and the proteins separated on a 10% SDS-polyacrylamide gel. The proteins were then transferred to nitrocellulose and probed with antibodies against the C-terminal 20 amino acids of human IκB-α.
A general note: In western blotting, separated proteins are transferred to a membrane and probed.

For test [2], the target named is 20S proteasome peptidylglutamyl-peptide hydrolyzing activity (Bos taurus, UniProt Q3MHN0). On the procedure: as §1, §2, §3
Where [3] appears, read: residual activity after removal of excess inhibitor by serial dilution/ultrafiltration.

Experimental findings from patent US6838477B2, “Lactacystin analogs” (President and Fellows of Harvard College, priority 1995, dated 2005) are described below.

For the compound `CC(C)[C@H](O)[C@@]12NC(=O)[C@H](C)[C@@H]1OC2=O` [β-Lactone, clasto-lactacystin β-lactone], in test [1] (compound 1 μM, 25° C.), the “κassoc = κobs/[I], Chymotrypsin-like activity (Suc-LLVY-AMC)” value is reported as 3059 ± 478 s^−1M^−1. For the same compound, the “chymotrypsin-like activity inhibited faster than by lactacystin” value in test [1] (relative to lactacystin) is 15-20 times. Further, the “reversibility of inhibition of chymotrypsin-like activity” value in test [1] (setting [3]) is on record as “irreversibly”. In addition, the “inhibition of calpain II activity” value against Calpain II is “do not inhibit”. Besides, in the test with IκB-α, the “degradation of IκB after TNF induction” value is recorded as “blocks degradation” and the “phosphorylated form of IκB” value was “stabilizes the phosphorylated form”. For the same compound, the “κassoc = κobs/[I], Peptidylglutamyl-peptide hydrolyzing activity (Cbz-LLE-βNA)” value in test [2] (compound 50 μM, 25° C.) was found to be 59 ± 17 s^−1M^−1. The “PGPH activity inhibited faster than by lactacystin” value in test [2] (relative to lactacystin) is recorded as 15-20 times. Moreover, the “reversibility of inhibition of PGPH activity” value in test [2] (setting [3]) was “reversibly”.
